Literature values as cited in patent US20050002974A1, “Itch-relieving cosmetic or dermatological preparation” (Beiersdorf AG, priority 2002, published 2005).

How the values were obtained:
[1] = rubbed into the skin
[2] = used in aqueous solutions

| Compound | feel on the skin [1] | local anesthetic properties [2] |
| --- | --- | --- |
| CC1CCC(C(C)C)C(O)C1 (centres unmarked) [menthol, Menthol] | pleasant cooling feel |  |
| polyethylene glycol (9) monododecyl ether [polidocanol] |  | strong local anesthetic properties |
